The source of these data is ChEMBL document CHEMBL4004883, “Biologically active perspective synthesis of heteroannulated 8-nitroquinolines with green chemistry approach” (Bioorg Med Chem Lett, 2017).

Assay [1] has as its system Staphylococcus aureus. In words: Antibacterial activity against Staphylococcus aureus MTCC 96 at 100 ug incubated for 24 hrs under dark condition by agar well diffusion method. In kind it is functional. As to conditions: MTCC 96, 24 h, read-out: IZ.
For assay [2], the system named is Staphylococcus aureus. In words: Antibacterial activity against Staphylococcus aureus MTCC 96 incubated for 24 hrs under dark condition by microwell dilution method. The note with it: MTCC 96, 24 h. The class given is functional.
The subject of assay [3] is Bacillus subtilis. In words: Antibacterial activity against Bacillus subtilis MTCC 121 at 100 ug incubated for 24 hrs under dark condition by agar well diffusion method. The class given is functional. The note with it: MTCC 121, 24 h, read-out: IZ.
The test system of assay [4] is Bacillus subtilis. In words: Antibacterial activity against Bacillus subtilis MTCC 121 incubated for 24 hrs under dark condition by microwell dilution method. The note with it: MTCC 121, 24 h. The class given is functional.
Assay [5] has as its system Escherichia coli. Put plainly: Antibacterial activity against Escherichia coli MTCC 1652 at 100 ug incubated for 24 hrs under dark condition by agar well diffusion method. In kind it is functional. The note with it: MTCC 1652, 24 h, read-out: IZ.
In assay [6] the test system is Escherichia coli. In words: Antibacterial activity against Escherichia coli MTCC 1652 incubated for 24 hrs under dark condition by microwell dilution method. The note with it: MTCC 1652, 24 h. The class given is functional.
Assay [7] relates to Pseudomonas aeruginosa. Put plainly: Antibacterial activity against Pseudomonas aeruginosa MTCC 102 at 100 ug incubated for 24 hrs under dark condition by agar well diffusion method. The class given is functional. As to conditions: MTCC 102, 24 h, read-out: IZ.
Assay [8] concerns Pseudomonas aeruginosa. Put plainly: Antibacterial activity against Pseudomonas aeruginosa MTCC 102 incubated for 24 hrs under dark condition by microwell dilution method. The class given is functional. As to conditions: MTCC 102, 24 h.
A short description of assay [9]: Antioxidant activity assessed as DPPH radical scavenging activity after 20 mins by UV/VIS Spectrophotometric method. The class given is functional.
Assay [10] can be described thus: Antioxidant activity assessed as assessed as ferric ion reducing activity by measuring absorbance at 700 nm at 20 ug/ml after 20 mins by spectrophotometric method. The class given is functional.
The nature of assay [11]: Antioxidant activity assessed as total antioxidant capacity measured as ascorbic acid equivalents at 20 ug/ml after 90 mins by phosphomolybdenum method. The class given is functional.
In another assay the test system is MCF7. Put plainly: Cytotoxicity against human MCF7 cells assessed as decrease in cell viability after 48 hrs by MTT assay. In kind it is functional, cell-based. As to conditions: MCF7, 48 h.
A further assay has as its system A549. In words: Cytotoxicity against human A549 cells assessed as decrease in cell viability after 48 hrs by MTT assay. The class given is functional, cell-based. The note with it: A549, 48 h.
Assay [12] in a line: Antioxidant activity assessed as assessed as ferric ion reducing activity by measuring absorbance at 700 nm at 60 ug/ml after 20 mins by spectrophotometric method. In kind it is functional.
A short description of assay [13]: Antioxidant activity assessed as assessed as ferric ion reducing activity by measuring absorbance at 700 nm at 100 ug/ml after 20 mins by spectrophotometric method. In kind it is functional.
Assay [14] is described as follows: Antioxidant activity assessed as total antioxidant capacity measured as ascorbic acid equivalents at 60 ug/ml after 90 mins by phosphomolybdenum method. The class given is functional.
The nature of assay [15]: Antioxidant activity assessed as total antioxidant capacity measured as ascorbic acid equivalents at 100 ug/ml after 90 mins by phosphomolybdenum method. The class given is functional.

≈ marks a conversion by molar mass, not a printed value.

`N#CC1=C(N)OC2=C(CNc3c2cccc3[N+](=O)[O-])C1c1ccc(Cl)cc1` (stereo not drawn): the zone of inhibition at 100 µg/disc in the assay on Staphylococcus aureus [1] turned out to be 21 mm; with Bacillus subtilis [3], 24 mm; in the assay on Escherichia coli [5], 21 mm; with Pseudomonas aeruginosa [7], 18 mm. The MIC turned out to be 10 mg/L (≈ 26.3 µM) with Staphylococcus aureus [2], 10 mg/L (≈ 26.3 µM) in the assay with Bacillus subtilis [4], 17 mg/L (≈ 44.6 µM) in the assay with Escherichia coli [6] and 55.5 mg/L (≈ 146 µM) with Pseudomonas aeruginosa [8]. Besides, the IC50 was determined as 118.03 mg/L (≈ 310 µM) in assay [9], 22.7 µM in the assay on MCF7 and 28.1 µM in the assay with A549. Moreover, the OD in [10] was determined as 0.088; in [12], 0.125; in assay [13], 0.189. For the same molecule, the figures for the Activity in assay [11], in assay [14] and in assay [15] were 0.59 µgequiv/ml, 1.06 µgequiv/ml and 2.57 µgequiv/ml, respectively.
As to `COc1ccc(C2C(C#N)=C(N)OC3=C2CNc2c3cccc2[N+](=O)[O-])cc1OC` (stereo not drawn), the zone of inhibition at 100 µg/disc was 14 mm with Staphylococcus aureus [1], 15 mm in the assay on Bacillus subtilis [3], 12 mm with Escherichia coli [5] and 13 mm in the assay with Pseudomonas aeruginosa [7]. Further, the MIC against Staphylococcus aureus [2] is 40 mg/L (≈ 98.4 µM); with Bacillus subtilis [4] it was 20 mg/L (≈ 49.2 µM); against Escherichia coli [6] it was 80.5 mg/L (≈ 198 µM); in the assay on Pseudomonas aeruginosa [8], 150 mg/L (≈ 369 µM). Further, the IC50 in [9] turned out to be 124.38 mg/L (≈ 306 µM); with MCF7 it was 56.3 µM; in the assay with A549, 50.6 µM. For the same molecule, the figures for the OD in assay [10], in assay [12] and in [13] were 0.078, 0.111 and 0.157, respectively. Besides, the Activity came out at 4.04 µgequiv/ml in [11], 9.51 µgequiv/ml in assay [14] and 13.7 µgequiv/ml in assay [15].
Take `COc1ccc(C2C3CNc4c(cccc4[N+](=O)[O-])C3=NN2c2ccccc2)cc1` (stereo not drawn): the zone of inhibition at 100 µg/disc was 15 mm in the assay with Staphylococcus aureus [1], 17 mm in the assay on Bacillus subtilis [3], 14 mm in the assay with Escherichia coli [5] and 10 mm in the assay with Pseudomonas aeruginosa [7]. Further, the MIC against Staphylococcus aureus [2] was 17.5 mg/L (≈ 43.7 µM); against Bacillus subtilis [4], 20 mg/L (≈ 49.9 µM); in the assay with Escherichia coli [6], 42.5 mg/L (≈ 106 µM); in the assay on Pseudomonas aeruginosa [8], 200 mg/L (≈ 499 µM). Also, the IC50 in assay [9] is 138.8 mg/L (≈ 347 µM); in the assay with MCF7 it was 31.3 µM; in the assay with A549, 40.2 µM. Moreover, the OD came to 0.091 in [10], 0.134 in assay [12] and 0.192 in assay [13]. Besides, the Activity in assay [11] turned out to be 4.95 µgequiv/ml; in assay [14], 10.5 µgequiv/ml; in [15], 14.3 µgequiv/ml.
As to `N#CC1=C(N)OC2=C(CNc3c2cc(Cl)cc3[N+](=O)[O-])C1c1ccc(Cl)cc1` (stereo not drawn), the zone of inhibition at 100 µg/disc came to 15 mm in the assay with Staphylococcus aureus [1], 18 mm in the assay on Bacillus subtilis [3], 18 mm with Escherichia coli [5] and 16 mm in the assay with Pseudomonas aeruginosa [7]. Moreover, the MIC against Staphylococcus aureus [2] is 17.5 mg/L (≈ 42.1 µM); against Bacillus subtilis [4], 17.5 mg/L (≈ 42.1 µM); against Escherichia coli [6] it was 25.5 mg/L (≈ 61.4 µM); in the assay on Pseudomonas aeruginosa [8], 55.5 mg/L (≈ 134 µM). Further, the IC50 in assay [9] came out at 132.65 mg/L (≈ 319 µM); in the assay on MCF7, 18 µM; in the assay with A549, 25.5 µM. Moreover, the OD amounted to 0.093 in [10], 0.125 in assay [12] and 0.156 in assay [13]. In addition, the Activity in assay [11] is 3.67 µgequiv/ml; in assay [14] it was 7.08 µgequiv/ml; in assay [15], 13 µgequiv/ml.
In the case of `N#CC1=C(N)OC2=C(CNc3c2cccc3[N+](=O)[O-])C1c1ccc(F)cc1` (stereo not drawn), the zone of inhibition at 100 µg/disc in the assay on Staphylococcus aureus [1] was determined as 23 mm; in the assay on Bacillus subtilis [3] it was 26 mm; in the assay on Escherichia coli [5], 22 mm; with Pseudomonas aeruginosa [7] it was 20 mm. In addition, the MIC came out at 5 mg/L (≈ 13.7 µM) with Staphylococcus aureus [2], 7.5 mg/L (≈ 20.6 µM) against Bacillus subtilis [4], 17 mg/L (≈ 46.7 µM) against Escherichia coli [6] and 37 mg/L (≈ 102 µM) against Pseudomonas aeruginosa [8]. The IC50 was 128.58 mg/L (≈ 353 µM) in assay [9], 35.7 µM with MCF7 and 22.1 µM in the assay on A549. Moreover, the values for the OD in [10], in assay [12] and in assay [13] were 0.085, 0.098 and 0.12, respectively. For the same molecule, the Activity in assay [11] is 2.12 µgequiv/ml; in assay [14], 4.06 µgequiv/ml; in [15], 7.45 µgequiv/ml.
With `Cc1ccc(C2C(C#N)=C(N)OC3=C2CNc2c3cccc2[N+](=O)[O-])cc1` (stereo not drawn), the zone of inhibition at 100 µg/disc with Staphylococcus aureus [1] was determined as 13 mm; with Bacillus subtilis [3], 12 mm; in the assay with Escherichia coli [5], 18 mm; with Pseudomonas aeruginosa [7], 15 mm. Also, the MIC amounted to 55 mg/L (≈ 153 µM) in the assay on Staphylococcus aureus [2], 50 mg/L (≈ 139 µM) in the assay on Bacillus subtilis [4], 25.5 mg/L (≈ 70.8 µM) against Escherichia coli [6] and 55.5 mg/L (≈ 154 µM) in the assay with Pseudomonas aeruginosa [8]. Further, the IC50 in assay [9] was 183.1 mg/L (≈ 508 µM); in the assay with MCF7, 34.1 µM; in the assay with A549, 56.3 µM. In addition, the OD was determined as 0.09 in assay [10], 0.111 in assay [12] and 0.163 in assay [13]. For the same molecule, the values for the Activity in [11], in assay [14] and in assay [15] were 1.82 µgequiv/ml, 4.43 µgequiv/ml and 8.15 µgequiv/ml, respectively.
For the molecule `O=[N+]([O-])c1cccc2c1NCC1C2=NN(c2ccccc2)C1c1ccc(Br)cc1` (stereo not drawn), the zone of inhibition at 100 µg/disc with Staphylococcus aureus [1] amounted to 16 mm; with Bacillus subtilis [3] it was 19 mm; in the assay on Escherichia coli [5] it was 18 mm; in the assay on Pseudomonas aeruginosa [7], 16 mm. Also, the MIC was determined as 15 mg/L (≈ 33.4 µM) against Staphylococcus aureus [2], 12.5 mg/L (≈ 27.8 µM) in the assay with Bacillus subtilis [4], 25.5 mg/L (≈ 56.8 µM) against Escherichia coli [6] and 55.5 mg/L (≈ 124 µM) against Pseudomonas aeruginosa [8]. Besides, the values for the IC50 (in assay [9]; in the assay on MCF7; in the assay with A549) were 226.97 mg/L (≈ 505 µM), 34.7 µM and 29.6 µM, respectively. For the same molecule, the results for the OD in [10], in [12] and in assay [13] were 0.09, 0.096 and 0.107, respectively. The Activity in [11] amounted to 6.12 µgequiv/ml; in assay [14] it was 13.7 µgequiv/ml; in [15], 18.2 µgequiv/ml.
`COc1ccc(C2C3CNc4c(cccc4[N+](=O)[O-])C3=NN2c2ccccc2)cc1OC` (stereo not drawn): the zone of inhibition at 100 µg/disc with Staphylococcus aureus [1] was found to be 19 mm; with Bacillus subtilis [3], 19 mm; in the assay with Escherichia coli [5], 18 mm; in the assay on Pseudomonas aeruginosa [7] it was 16 mm. In addition, the MIC with Staphylococcus aureus [2] amounted to 12.5 mg/L (≈ 29 µM); with Bacillus subtilis [4] it was 12.5 mg/L (≈ 29 µM); with Escherichia coli [6], 34 mg/L (≈ 79 µM); against Pseudomonas aeruginosa [8], 55.5 mg/L (≈ 129 µM). The IC50 in [9] turned out to be 169.91 mg/L (≈ 395 µM); in the assay on MCF7, 58.5 µM; in the assay with A549, 46.4 µM. In addition, the OD in assay [10] came to 0.084; in assay [12], 0.102; in assay [13], 0.155. Also, the Activity turned out to be 4.04 µgequiv/ml in assay [11], 8.12 µgequiv/ml in assay [14] and 12.3 µgequiv/ml in assay [15].
Consider `COc1ccc(C2C(C#N)=C(N)OC3=C2CNc2c3cccc2[N+](=O)[O-])cc1` (stereo not drawn), for which the zone of inhibition at 100 µg/disc with Staphylococcus aureus [1] was determined as 21 mm; in the assay on Bacillus subtilis [3], 20 mm; in the assay with Escherichia coli [5], 20 mm; in the assay on Pseudomonas aeruginosa [7], 21 mm. Also, the MIC against Staphylococcus aureus [2] was determined as 10 mg/L (≈ 26.6 µM); in the assay with Bacillus subtilis [4], 12.5 mg/L (≈ 33.2 µM); against Escherichia coli [6], 17 mg/L (≈ 45.2 µM); in the assay on Pseudomonas aeruginosa [8] it was 37 mg/L (≈ 98.3 µM). Besides, the IC50 is 65.42 mg/L (≈ 174 µM) in assay [9], 16.8 µM in the assay with MCF7 and 35.6 µM in the assay with A549. Besides, the figures for the OD in assay [10], in assay [12] and in assay [13] were 0.109, 0.211 and 0.368, respectively. Also, the Activity was determined as 7.55 µgequiv/ml in assay [11], 15.1 µgequiv/ml in assay [14] and 23.2 µgequiv/ml in [15].
